Laboratory results from US20230045421A1 (priority 2018, published 2023).
Where two headings read alike, the source gives them in different places.

Tested on: HBV rcDNA
Experiment: HepDE19 assay with bDNA quantitation of HBV rcDNA
Format: cell-based, hepatitis B virus
Outline: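 Compounds, top concentration 25 μM in 8-point duplicate series, were applied to Tet-free HepDE19 cultures for 7 days. Branched-DNA quantitation of HBV rcDNA against untreated wells gave EC50 and EC90 by 4-parameter fit. Viability (CC50) came from ATP luminescence on parallel plates incubated 4 days.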

[1] = HepDE19 assay, inhibition of formation of rcDNA; read-out: DE-19bDNA EC50
[2] = read-out: DE-19bDNA EC50; HepDE19 assay, inhibition of formation of relaxed circular DNA (rcDNA), bDNA quantitation
[3] = HepDE19 assay, inhibition of formation of relaxed circular DNA (rcDNA), bDNA quantitation; read-out: DE-19bDNA EC50
[4] = Hepatitis B virus, HepDE19, HepDE19 assay, inhibition of formation of rcDNA; read-out: DE-19bDNA EC50

Compound `Cc1[nH]c(=O)c2ccccc2c1C(C)N(C)C(=O)Nc1ccc(F)c(Cl)c1` (single isomer, unassigned) [Compound 222, 3-(3-Chloro-4-fluorophenyl)-1-methyl-1-(1-(3-methyl-1-oxo-1,2-dihydroisoquinolin-4-yl)ethyl)urea] has an EC50 [1] of 620 nM.
For `CC(c1c[nH]c(=O)c2cc(F)c(F)cc12)N(C)C(=O)Nc1cc(Cl)cc(Cl)c1` (single isomer, unassigned) [Compound 416, 3-(3,5-Dichlorophenyl)-1-(1-(6,7-difluoro-1-oxo-1,2-dihydroisoquinolin-4-yl)ethyl)-1-methylurea], the EC50 [2] was 10000 nM.
With `CC(c1c[nH]c(=O)c2c(F)cc(F)cc12)N(CCCO)C(=O)Nc1ccc(F)c(Cl)c1` (single isomer, unassigned) [Compound 374, 3-(3-Chloro-4-fluorophenyl)-1-(1-(6,8-difluoro-1-oxo-1,2-dihydroisoquinolin-4-yl)ethyl)-1-(3-hydroxypropyl)urea] the EC50 (Hepatitis B virus, HepDE19, HepDE19 assay, inhibition of formation of relaxed circular DNA (rcDNA), bDNA quantitation; read-out: DE-19bDNA EC50) was 6 nM.
For `Cc1ncc(C(C)N(C)C(=O)Nc2ccc(F)c(Cl)c2)c2ccccc12` (single isomer, unassigned) [Compound 352, 3-(3-Chloro-4-fluorophenyl)-1-methyl-1-(1-(1-methylisoquinolin-4-yl)ethyl)urea], the EC50 [3] was 9900 nM.
With `CC(c1c[nH]c(=O)c2cc(F)c(F)cc12)N(C)C(=O)Nc1cc(Cl)c(F)c(Cl)c1` (single isomer, unassigned) [Compound 439, 3-(3,5-Dichloro-4-fluorophenyl)-1-(1-(6,7-difluoro-1-oxo-1,2-dihydroisoquinolin-4-yl)ethyl)-1-methylurea] the EC50 [3] was 120 nM.
`CC(C)CN(C(=O)Nc1ccc(F)c(Cl)c1)C(C)c1c[nH]c(=O)c2cnccc12` (racemic) [Compound 154, 3-(3-Chloro-4-fluorophenyl)-1-isobutyl-1-(1-(1-oxo-1,2-dihydro-2,7-naphthyridin-4-yl)ethyl)urea] was tested, and the EC50 [4] was 20 nM.
Compound `CCN(C(=O)Nc1ccc(F)cc1)C(C)c1c[nH]c(=O)c2c(F)c(F)ccc12` (single isomer, unassigned) [Compound 464, 1-(1-(7,8-Difluoro-1-oxo-1,2-dihydroisoquinolin-4-yl)ethyl)-1-ethyl-3-(4-fluorophenyl)urea] has an EC50 [3] of 2900 nM.
Compound `CC(c1c[nH]c(=O)c2c(F)cc(F)cc12)N(CCS(N)(=O)=O)C(=O)Nc1ccc(F)c(Cl)c1` (single isomer, unassigned) [Compound 390, 2-(3-(3-Chloro-4-fluorophenyl)-1-(1-(6,8-difluoro-1-oxo-1,2-dihydroisoquinolin-4-yl)ethyl)ureido) ethane-1-sulfonamide] has an EC50 [3] of 17 nM.
Compound `CC(c1c[nH]c(=O)c2cc(F)c(F)cc12)N(C)C(=O)Nc1ccc(F)c(C#N)c1` (single isomer, unassigned) [Compound 428, 3-(3-Cyano-4-fluorophenyl)-1-(1-(6,7-difluoro-1-oxo-1,2-dihydroisoquinolin-4-yl)ethyl)-1-methylurea] has an EC50 [3] of 1600 nM.
Work on `CCC(c1c[nH]c(=O)c2ccccc12)N(CC)C(=O)Nc1ccc(F)c(Cl)c1` (single isomer, unassigned) [Compound 37, 3-(3-chloro-4-fluorophenyl)-1-ethyl-1-(1-(1-oxo-1,2-dihydroisoquinolin-4-yl)propyl)urea] yielded an EC50 (read-out: DE-19bDNA EC50; HepDE19 assay, inhibition of formation of rcDNA) of 260 nM.
`CC(c1c[nH]c(=O)c2c(F)c(F)ccc12)N(C)C(=O)Nc1cccc(F)c1F` (single isomer, unassigned) [Compound 458, 1-(1-(7,8-Difluoro-1-oxo-1,2-dihydroisoquinolin-4-yl)ethyl)-3-(2,3-difluorophenyl)-1-methylurea] was tested, and the EC50 [3] was 14000 nM.
`CC(=O)NCCN(C(=O)Nc1ccc(F)c(Cl)c1)C(C)c1c[nH]c(=O)c2ccccc12` (racemic) [Compound 100, N-(2-(3-(3-chloro-4-fluorophenyl)-1-(1-(1-oxo-1,2-dihydroisoquinolin-4-yl)ethyl)ureido)ethyl)acetamide] was tested, and the EC50 [4] was 1000 nM.
`CCN(C(=O)Nc1ccccc1)C(C)c1c[nH]c(=O)c2c(F)c(F)ccc12` (single isomer, unassigned) [Compound 466, 1-(1-(7,8-Difluoro-1-oxo-1,2-dihydroisoquinolin-4-yl)ethyl)-1-ethyl-3-phenylurea] showed an EC50 [2] of 8500 nM.
Work on `CCN(C(=O)Nc1ccc(F)c(Cl)c1)C(C)c1c[nH]c(=O)c2ccccc12` (single isomer, unassigned) [Compound 25, 3-(3-Chloro-4-fluorophenyl)-1-ethyl-1-(1-(1-oxo-1,2-dihydroisoquinolin-4-yl)ethyl)urea] yielded an EC50 [1] of 20 nM.
For `CC(c1c[nH]c(=O)c2ccccc12)N(CC(N)=O)C(=O)Nc1ccc(F)c(Cl)c1` (racemic) [Compound 128, 2-(3-(3-Chloro-4-fluorophenyl)-1-(1-(1-oxo-1,2-dihydroisoquinolin-4-yl)ethyl)ureido) acetamide], the EC50 [4] was 1500 nM.
In the case of `CC(c1cnc(OCc2nc[nH]n2)c2ccccc12)N(CCCO)C(=O)Nc1ccc(F)c(Cl)c1` (single isomer, unassigned) [Compound 259, 1-(1-(1-((1H-1,2,4-Triazol-3-yl)methoxy)isoquinolin-4-yl)ethyl)-3-(3-chloro-4-fluorophenyl)-1-(3-hydroxypropyl)urea], the EC50 [1] is reported as 2100 nM.
In the case of `COc1ccc2c(C(C)N(C)C(=O)Nc3ccc(F)c(Cl)c3)c[nH]c(=O)c2c1` (racemic) [Compound 173, 3-(3-Chloro-4-fluorophenyl)-1-(1-(7-methoxy-1-oxo-1,2-dihydroisoquinolin-4-yl)ethyl)-1-methylurea], the EC50 [4] is reported as 380 nM.
With `COc1ncc(CN(Cc2ccccc2)C(=O)Nc2ccc(F)c(Cl)c2)c2ccccc12` [Compound 48, 1-Benzyl-3-(3-chloro-4-fluorophenyl)-1-((1-methoxyisoquinolin-4-yl)methyl)urea] the EC50 [4] was 2100 nM.
With `CC(c1c[nH]c(=O)c2ccccc12)N(C(=O)Nc1ccc(F)c(Cl)c1)C1CC1` (single isomer, unassigned) [Compound 68, 3-(3-Chloro-4-fluorophenyl)-1-cyclopropyl-1-(1-(1-oxo-1,2-dihydroisoquinolin-4-yl)ethyl)urea] the EC50 [1] was 60 nM.
Compound `CC(c1c[nH]c(=O)c2cc(F)c(F)cc12)N(C)C(=O)Nc1ccnc(Cl)c1` (single isomer, unassigned) [Compound 418, 3-(2-Chloropyridin-4-yl)-1-(1-(6,7-difluoro-1-oxo-1,2-dihydroisoquinolin-4-yl)ethyl)-1-methylurea] has an EC50 [3] of 10000 nM.
`Cc1cc(NC(=O)N(C)C(C)c2c(C)[nH]c(=O)c3ccccc23)ccc1F` (single isomer, unassigned) [Compound 236, 3-(4-Fluoro-3-methylphenyl)-1-methyl-1-(1-(3-methyl-1-oxo-1,2-dihydroisoquinolin-4-yl)ethyl)urea] showed an EC50 [1] of 410 nM.
`CC(c1c[nH]c(=O)c2ccccc12)N(CCC(=O)N(C)C)C(=O)Nc1ccc(F)c(Cl)c1` (single isomer, unassigned) [Compound 106, 3-(3-(3-Chloro-4-fluorophenyl)-1-(1-(1-oxo-1,2-dihydroisoquinolin-4-yl)ethyl)ureido)-N,N-dimethylpropanamide] was tested, and the EC50 [1] was 80 nM.
Work on `CNC(=O)c1ncc(C(C)N(C)C(=O)Nc2ccc(F)c(Cl)c2)c2ccccc12` (single isomer, unassigned) [Compound 316, 4-(1-(3-(3-Chloro-4-fluorophenyl)-1-methylureido)ethyl)-N-methylisoquinoline-1-carboxamide] yielded an EC50 [3] of 7500 nM.
